Assay results: ChEMBL document CHEMBL1159244, “New polyoxypregnane ester derivatives from Leptadenia hastata” (J Nat Prod, 1995)
Activity calls are given as the source filed them. The rule behind the calls is not given here.

Key:
Raji [1] = assay: Cytotoxicity against human Raji cells assessed as [methyl-3H]thymidine incorporation into DNA at 0.5 ug/ml after 24 hrs; type: functional, cell-based
Raji [2] = assay: Cytotoxicity against human Raji cells assessed as [methyl-3H]thymidine incorporation into DNA at 1 ug/ml after 24 hrs; type: functional, cell-based

SMILES	Activity (Raji [1])	Activity (Raji [2])
CC(=O)[C@]1(O)CC[C@@]2(O)[C@]1(C)[C@H](OC(=O)c1cccnc1)C[C@@H]1[C@@]3(C)CC[C@H](O)CC3=CC[C@]12O	inactive	inactive
CO[C@H]1C[C@H](O[C@H]2CC[C@@]3(C)C(=CC[C@]4(O)[C@@H]3C[C@@H](OC(=O)/C=C/c3ccccc3)[C@@]3(C)[C@]4(O)CC[C@@]3(O)[C@H](C)O)C2)O[C@H](C)[C@H]1O[C@H]1C[C@@H](OC)[C@H](O)[C@@H](C)O1	inactive	inactive
CO[C@H]1C[C@H](O[C@H]2CC[C@@]3(C)C(=CC[C@]4(O)[C@@H]3C[C@@H](OC(=O)c3ccccc3)[C@@]3(C)[C@]4(O)CC[C@@]3(O)[C@H](C)OC(=O)/C=C/c3ccccc3)C2)O[C@H](C)[C@H]1O	inactive	inactive
CC(=O)[C@]1(O)CC[C@@]2(O)[C@]1(C)[C@H](OC(=O)c1ccccc1)C[C@@H]1[C@@]3(C)CC[C@H](O)CC3=CC[C@]12O	inactive	inactive
C[C@H](O)[C@]1(O)CC[C@@]2(O)[C@]1(C)[C@H](OC(=O)/C=C/c1ccccc1)C[C@@H]1[C@@]3(C)CC[C@H](O)CC3=CC[C@]12O	inactive	inactive
CC(=O)O[C@@H](C)[C@]1(O)CC[C@@]2(O)[C@]1(C)[C@H](OC(=O)/C=C/c1ccccc1)C[C@@H]1[C@@]3(C)CC[C@H](O)CC3=CC[C@]12O	inactive	inactive
CC(=O)O[C@@H]1C[C@@H]2[C@@]3(C)CC[C@H](O)CC3=CC[C@@]2(O)[C@@]2(O)CC[C@@](O)([C@H](C)O)[C@@]12C	inactive	inactive
CO[C@H]1C[C@H](O[C@H]2CC[C@@]3(C)C(=CC[C@]4(O)[C@@H]3C[C@@H](OC(=O)c3ccccc3)[C@@]3(C)[C@]4(O)CC[C@@]3(O)[C@H](C)OC(=O)/C=C/c3ccccc3)C2)O[C@H](C)[C@H]1O[C@H]1C[C@@H](OC)[C@H](O)[C@@H](C)O1	inactive	inactive
C[C@H](OC(=O)c1cccnc1)[C@]1(O)CC[C@@]2(O)[C@]1(C)[C@H](OC(=O)/C=C/c1ccccc1)C[C@@H]1[C@@]3(C)CC[C@H](O)CC3=CC[C@]12O	inactive	inactive
CC(=O)[C@]1(O)CC[C@@]2(O)[C@]1(C)[C@H](OC(=O)/C=C/c1ccccc1)C[C@@H]1[C@@]3(C)CC[C@H](O)CC3=CC[C@]12O	inactive	inactive
C[C@H](OC(=O)c1ccccc1)[C@]1(O)CC[C@@]2(O)[C@]1(C)[C@H](OC(=O)c1ccccc1)C[C@@H]1[C@@]3(C)CC[C@H](O)CC3=CC[C@]12O	inactive	inactive
C[C@H](OC(=O)/C=C/c1ccccc1)[C@]1(O)CC[C@@]2(O)[C@]1(C)[C@H](OC(=O)c1ccccc1)C[C@@H]1[C@@]3(C)CC[C@H](O)CC3=CC[C@]12O	inactive	inactive
CC(=O)O[C@@H](C)[C@]1(O)CC[C@@]2(O)[C@]1(C)[C@H](OC(=O)c1cccnc1)C[C@@H]1[C@@]3(C)CC[C@H](O)CC3=CC[C@]12O	inactive	inactive
CC(=O)O[C@@H]1C[C@@H]2[C@@]3(C)CC[C@H](O)CC3=CC[C@@]2(O)[C@@]2(O)CC[C@@](O)(C(C)=O)[C@@]12C	inactive	inactive
